Laboratory results reported in US9006487B2, “Amine-containing lipids and uses thereof” (Massachusetts Institute of Technology, priority 2005, dated 2015).

What was measured:
Format in all cases: cell-based
cos-7 cells = test: DNA transfection: luciferase expression relative to Lipofectamine 2000; details: 300 ng of DNA per well
Method in brief: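 cos-7 cells were transfected with 300 ng/well luciferase DNA complexed with lipid at ratios from 2.5 to 25 w/w. Bright-Glo luminescence was read after 48 hours and converted to ng luciferase by standard curve. Data are percent of the Lipofectamine 2000 control (2.5 w/w).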

[1] = DNA delivery: raw luciferase expression (relative light units) of best-transfecting lipids; details: 300 ng of DNA per well
Description: Raw values for luciferase expression (relative lights units) of best-transfecting lipids at lipid/DNA (w/w) ratios listed. 300 ng of DNA was added per well.

[2] = test system: renilla and firefly luciferases; test: siRNA delivery: reporter-protein (renilla luciferase) knockdown relative to Lipofectamine 2000, firefly luciferase as viability control; details: 50 ng of siRNA per well
Description: Reporter-protein knockdown achieved by the top transfecting lipids relative to Lipofectamine™ 2000 (where negative values indicate improved knockdown). The assay accounts for toxicity, monitoring expression of both renilla and firefly luciferases, where the latter serves as viability control. For each lipid, 50 ng of siRNA was added per well at specific lipid/RNA w/w ratios (from top to bottom: 2.5, 5, 10, 15).

Raw values for luciferase expression ([1]; lipid/DNA 2.5 w/w): 2875811 relative lights units
Raw values for luciferase expression ([1]; lipid/DNA 5 w/w): 4619654 relative lights units
Raw values for luciferase expression ([1]; lipid/DNA 10 w/w): 7977064 relative lights units
Raw values for luciferase expression ([1]; lipid/DNA 15 w/w): 10279185 relative lights units
Compound: CCCCCCCCCCCCNC(=O)CCN(C)CCN(CCC(=O)NCCCCCCCCCCCC)CCC(=O)NCCCCCCCCCCCC [ND95]
luciferase expression (second part of table, values relative to LIPO2000) (cos-7 cells; lipid/DNA 2.5 w/w): 11.3
luciferase expression (second part of table, values relative to LIPO2000) (cos-7 cells; lipid/DNA 5 w/w): 30.9
luciferase expression (second part of table, values relative to LIPO2000) (cos-7 cells; lipid/DNA 10 w/w): 37.6
luciferase expression (second part of table, values relative to LIPO2000) (cos-7 cells; lipid/DNA 15 w/w): 53.4
luciferase expression (second part of table, values relative to LIPO2000) (cos-7 cells; lipid/DNA 20 w/w): 37.8
luciferase expression (second part of table, values relative to LIPO2000) (cos-7 cells; lipid/DNA 25 w/w): 54.0
Reporter-protein knockdown relative to Lipofectamine 2000 (negative values indicate improved knockdown) ([2]; lipid/RNA 2.5 w/w): 19.8058
Reporter-protein knockdown relative to Lipofectamine 2000 (negative values indicate improved knockdown) ([2]; lipid/RNA 5 w/w): 8.319
Reporter-protein knockdown relative to Lipofectamine 2000 (negative values indicate improved knockdown) ([2]; lipid/RNA 10 w/w): −5.205
Reporter-protein knockdown relative to Lipofectamine 2000 (negative values indicate improved knockdown) ([2]; lipid/RNA 15 w/w): −7.163
